Patent US20250099478A1, “PLASMA KALLIKREIN INHIBITORS” (Merck Sharp & Dohme LLC, priority 2022, published 2025)

Each compound was assayed against T1, Human plasma kallikrein (Homo sapiens, UniProt P03952) (assay: Plasma Kallikrein Assay). Settings: purified Human plasma kallikrein 0.5 nM, substrate Acetyl-K-P-R-AFC; read-out: PKal IC50.
T1 construct: yields a heavy chain (371 amino acids) and a light chain (248 amino acids); purchased Enzyme Research Laboratories
Assay type: biochemical
Method: The effectiveness of a compound of the present invention as an inhibitor of plasma kallikrein can be determined using a relevant purified serine protease, and an appropriate synthetic substrate. The rate of hydrolysis of the chromogenic or fluorogenic substrate by the relevant serine protease was measured both in the absence and presence of compounds of the present invention. Assays were conducted at rt or at 37° C. […] A decrease in the rate of fluorescence change in the presence of inhibitor is indicative of enzyme inhibition. Such methods are known to one skilled in the art. The results of this assay are expressed as the half-maximal inhibitory concentrations (IC50), or the inhibitory constant, Ki.
Plasma kallikrein determinations were made in 50 mM HEPES buffer at pH 7.4 containing 150 mM NaCl, 5 mM CaCl2), and 0.1% PEG 8000 (polyethylene glycol; Fisher Scientific). Determinations were made using purified Human plasma kallikrein at a final concentration of 0.5 nM (Enzyme Research Laboratories) and the synthetic substrate, Acetyl-K-P-R-AFC (Sigma #C6608) at a concentration of […].
Times required to achieve equilibration between enzyme and inhibitor were determined in control experiments. […] IC50 was determined by inflection point from a four parameter logistic curve fit. Ki was calculated using the Cheng Prusoff equation, Ki=IC50/(1+([S]/Km)).

T1 sequence (P03952 391-638 limits assumed): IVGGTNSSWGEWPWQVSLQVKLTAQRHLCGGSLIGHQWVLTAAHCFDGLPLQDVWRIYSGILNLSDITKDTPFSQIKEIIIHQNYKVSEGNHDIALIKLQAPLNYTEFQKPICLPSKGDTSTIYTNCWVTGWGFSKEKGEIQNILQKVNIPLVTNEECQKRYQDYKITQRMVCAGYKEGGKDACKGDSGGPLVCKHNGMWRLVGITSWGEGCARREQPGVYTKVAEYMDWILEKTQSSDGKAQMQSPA
T1 sequence (P03952 20-390 partner limits assumed): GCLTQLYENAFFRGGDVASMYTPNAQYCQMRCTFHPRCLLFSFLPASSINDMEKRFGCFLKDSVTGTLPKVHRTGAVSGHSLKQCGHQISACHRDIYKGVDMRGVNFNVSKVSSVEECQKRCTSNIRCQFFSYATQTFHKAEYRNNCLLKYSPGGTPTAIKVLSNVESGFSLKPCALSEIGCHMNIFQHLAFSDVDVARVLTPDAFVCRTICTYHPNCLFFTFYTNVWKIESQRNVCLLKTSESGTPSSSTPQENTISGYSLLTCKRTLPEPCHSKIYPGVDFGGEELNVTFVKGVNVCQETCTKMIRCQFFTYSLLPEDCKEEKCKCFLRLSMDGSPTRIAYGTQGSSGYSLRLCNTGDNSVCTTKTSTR

IC50 [nM]	SMILES
18.5	O=C1Nc2ccc(Cl)c(F)c2[C@@]2(CCCN(C(=O)c3cnn(Cc4ccc(-c5c[nH]c(=O)o5)cc4)c3)C2)O1 [Example 53, (R)-6-Chloro-5-fluoro-1′-(1-(4-(2-oxo-2,3-dihydrooxazol-5-yl)benzyl)-1H-pyrazole-4-carbonyl)spiro[benzo[d][1,3]oxazine-4,3′-piperidin]-2(1H)-one]
20.8	Cc1cnn(Cc2ccc(Cn3cc(C(=O)N4CC[C@]5(C4)OC(=O)Nc4ccc(Cl)c(F)c45)cn3)cc2)c1 [Example 134, (S)-6-Chloro-5-fluoro-1′-(1-(4-((4-methyl-1H-pyrazol-1-yl)methyl)benzyl)-1H-pyrazole-4-carbonyl)spiro[benzo[d][1,3]oxazine-4,3′-pyrrolidin]-2(1H)-one]
34.1	O=C1Nc2ccc(Cl)c(F)c2[C@@]2(CCCN(C(=O)c3cnn(Cc4ccc(F)c(N5CCC5)c4)c3)C2)O1 [Example 8, (R)-1′-(1-(3-(Azetidin-1-yl)-4-fluorobenzyl)-1H-pyrazole-4-carbonyl)-6-chloro-5-fluorospiro[benzo[d][1,3]oxazine-4,3′-piperidin]-2(1H)-one]
33.1	O=C1Nc2ccc(Cl)c(F)c2[C@@]2(CCCN(C(=O)c3nnc(Cc4ccccc4F)[nH]3)C2)O1 [Example 114, (R)-6-Chloro-5-fluoro-1′-(5-(2-fluorobenzyl)-4H-1,2,4-triazole-3-carbonyl)spiro[benzo[d][1,3]oxazine-4,3′-piperidin]-2(1H)-one]
47.1	O=C1Nc2ccc(Cl)c(F)c2[C@@]2(CCCN(C(=O)c3nnc(Cc4ccc5c(c4)OCO5)[nH]3)C2)O1 [Example 119, (R)-1′-(5-(Benzo[d][1,3]dioxol-5-ylmethyl)-4H-1,2,4-triazole-3-carbonyl)-6-chloro-5-fluorospiro[benzo[d][1,3]oxazine-4,3′-piperidin]-2(1H)-one]
26.4	O=C1Nc2ccc(Cl)c(F)c2[C@@]2(CCCN(C(=O)c3cnn(Cc4cncc(Cl)c4)c3)C2)O1 [Example 12, (R)-6-Chloro-1′-(1-((5-chloropyridin-3-yl)methyl)-1H-pyrazole-4-carbonyl)-5-fluorospiro[benzo[d][1,3]oxazine-4,3′-piperidin]-2(1H)-one]
20.3	O=C1Nc2ccc(Cl)c(F)c2[C@@]2(CCCN(C(=O)c3nnc(Cc4ccc(CO)c(Cl)c4)[nH]3)C2)O1 [Example 125, (R)-6-Chloro-1′-(5-(3-chloro-4-(hydroxymethyl)benzyl)-4H-1,2,4-triazole-3-carbonyl)-5-fluorospiro[benzo[d][1,3]oxazine-4,3′-piperidin]-2(1H)-one]
20	O=C1Nc2ccc(Cl)c(F)c2[C@@]2(CCCN(C(=O)c3cnn(Cc4ccc(F)c(F)c4)c3)C2)O1 [Example 4, (R)-6-Chloro-1′-(1-(3,4-difluorobenzyl)-1H-pyrazole-4-carbonyl)-5-fluorospiro[benzo[d][1,3]oxazine-4,3′-piperidin]-2(1H)-one]
33.8	CCC(c1ccc2ncncc2c1)n1cc(C(=O)N2CCC[C@@]3(C2)OC(=O)Nc2ccc(Cl)c(F)c23)cn1 (single isomer, unassigned) [Example 41]
18.3	Cc1cccc(Cc2n[nH]c(C(=O)N3CCC[C@@]4(C3)OC(=O)Nc3ccc(Cl)c(F)c34)n2)c1 [Example 113, (R)-6-Chloro-1′-(3-(3-methylbenzyl)-1H-1,2,4-triazole-5-carbonyl)-5-fluorospiro[benzo[d][1,3]oxazine-4,3′-piperidin]-2(1H)-one]
23.1	O=C1Nc2ccc(Cl)c(F)c2[C@@]2(CCCN(C(=O)c3cnn(Cc4cccc(C(F)(F)F)c4)c3)C2)O1 [Example 5, (R)-6-Chloro-5-fluoro-1′-(1-(3-(trifluoromethyl)benzyl)-1H-pyrazole-4-carbonyl)spiro[benzo[d][1,3]oxazine-4,3′-piperidin]-2(1H)-one]
37.6	COc1ccc(Cl)cc1Cn1cc(C(=O)N2CCC[C@@]3(C2)OC(=O)Nc2ccc(Cl)c(F)c23)cn1 [Example 13, (R)-6-Chloro-1′-(1-(5-chloro-2-methoxybenzyl)-1H-pyrazole-4-carbonyl)-5-fluorospiro[benzo[d][1,3]oxazine-4,3′-piperidin]-2(1H)-one]
32.6	O=C1Nc2ccc(Cl)c(F)c2[C@@]2(CCCN(C(=O)c3cnn(Cc4cccc(C5CC5)c4)c3)C2)O1 [Example 48, (R)-6-Chloro-1′-(1-(3-cyclopropylbenzyl)-1H-pyrazole-4-carbonyl)-5-fluorospiro[benzo[d][1,3]oxazine-4,3′-piperidin]-2(1H)-one]
28.1	CC1CN(C(=O)c2cnn(Cc3ccccc3)c2)C[C@]2(C1)OC(=O)Nc1ccc(Cl)c(F)c12 (stereo partly drawn) [Example 20, (4R)-1′-(1-Benzyl-1H-pyrazole-4-carbonyl)-6-chloro-5-fluoro-5′-methylspiro[benzo[d][1,3]oxazine-4,3′-piperidin]-2(1H)-one]
47	COC(=O)c1ccc(Cn2cc(C(=O)N3CCC[C@@]4(C3)OC(=O)Nc3ccc(Cl)c(F)c34)cn2)cc1F [Example 49, Methyl (R)-4-((4-(6-chloro-5-fluoro-2-oxo-1,2-dihydrospiro[benzo[d][1,3]oxazine-4,3′-piperidine]-1′-carbonyl)-1H-pyrazol-1-yl)methyl)-2-fluorobenzoate]
27	O=C1Nc2ccc(Cl)c(F)c2[C@@]2(CCCN(C(=O)c3cnn(Cc4cnc5ccccn45)c3)C2)O1 [Example 19, (R)-6-Chloro-5-fluoro-1′-(1-(imidazo[1,2-a]pyridin-3-ylmethyl)-1H-pyrazole-4-carbonyl)spiro[benzo[d][1,3]oxazine-4,3′-piperidin]-2(1H)-one]
39.9	O=C1Nc2ccc(Cl)c(F)c2[C@@]2(CCCN(C(=O)c3nc(C(O)c4ccc(F)cc4)n[nH]3)C2)O1 (stereo partly drawn) [Example 127, (4R)-6-Chloro-5-fluoro-1′-(3-((4-fluorophenyl)(hydroxy)methyl)-1H-1,2,4-triazole-5-carbonyl)spiro[benzo[d][1,3]oxazine-4,3′-piperidin]-2(1H)-one]
46	CC(c1ccccc1)n1cc(C(=O)N2CCC[C@@]3(C2)OC(=O)Nc2ccc(Cl)c(F)c23)cn1 (single isomer, unassigned) [Example 23]
33.4	O=C1Nc2ccc(Cl)c(F)c2[C@@]2(CCCN(C(=O)c3nnc(Cc4cccc(OC(F)F)c4)[nH]3)C2)O1 [Example 90, (R)-6-Chloro-1′-(5-(3-(difluoromethoxy)benzyl)-4H-1,2,4-triazole-3-carbonyl)-5-fluorospiro[benzo[d][1,3]oxazine-4,3′-piperidin]-2(1H)-one]
49.7	O=C1Nc2ccc(Cl)c(F)c2[C@@]2(CCCN(C(=O)c3nnc(Cc4ccc(F)c(Cl)c4)[nH]3)C2)O1 [Example 87, (R)-6-Chloro-1′-(5-(3-chloro-4-fluorobenzyl)-4H-1,2,4-triazole-3-carbonyl)-5-fluorospiro[benzo[d][1,3]oxazine-4,3′-piperidin]-2(1H)-one]
39.9	O=C1Nc2ccc(Cl)c(F)c2[C@@]2(CCCN(C(=O)c3nnc(Cc4cccc(CO)c4)[nH]3)C2)O1 [Example 116, (R)-6-Chloro-5-fluoro-1′-(5-(3-(hydroxymethyl)benzyl)-4H-1,2,4-triazole-3-carbonyl)spiro[benzo[d][1,3]oxazine-4,3′-piperidin]-2(1H)-one]
22.9	CC1(C)COc2cc(Cn3cc(C(=O)N4CCC[C@@]5(C4)OC(=O)Nc4ccc(Cl)c(F)c45)cn3)ccc21 [Example 59, (R)-6-Chloro-1′-(1-((3,3-dimethyl-2,3-dihydrobenzofuran-6-yl)methyl)-1H-pyrazole-4-carbonyl)-5-fluorospiro[benzo[d][1,3]oxazine-4,3′-piperidin]-2(1H)-one]
14.7	O=C1Nc2ccc(Cl)c(F)c2[C@@]2(CCCN(C(=O)c3cnn(Cc4ccc5c(c4)COC5)c3)C2)O1 [Example 60, (R)-6-chloro-1′-(1-((1,3-dihydroisobenzofuran-5-yl)methyl)-1H-pyrazole-4-carbonyl)-5-fluorospiro[benzo[d][1,3]oxazine-4,3′-piperidin]-2(1H)-one]
24.2	O=C1Nc2ccc(Cl)c(F)c2[C@@]2(CCCN(C(=O)c3cnn(Cc4ccc5c(c4)CNS5(=O)=O)c3)C2)O1 [Example 64, (R)-6-chloro-1′-(1-((1,1-dioxido-2,3-dihydrobenzo[d]isothiazol-5-yl)methyl)-1H-pyrazole-4-carbonyl)-5-fluorospiro[benzo[d][1,3]oxazine-4,3′-piperidin]-2(1H)-one]
23.9	O=C1Nc2ccc(Cl)c(F)c2[C@@]2(CCCN(C(=O)c3nnc(Cc4cccc(C(F)(F)F)c4)[nH]3)C2)O1 [Example 115, (R)-6-Chloro-5-fluoro-1′-(5-(3-(trifluoromethyl)benzyl)-4H-1,2,4-triazole-3-carbonyl)spiro[benzo[d][1,3]oxazine-4,3′-piperidin]-2(1H)-one]
29.2	O=C1Nc2ccc(Cl)c(F)c2[C@@]2(CCCN(C(=O)c3nnc(Cc4cccc(Cl)c4)[nH]3)C2)O1 [Example 118, (R)-6-Chloro-1′-(5-(3-chlorobenzyl)-4H-1,2,4-triazole-3-carbonyl)-5-fluorospiro[benzo[d][1,3]oxazine-4,3′-piperidin]-2(1H)-one]
